PubChem BioAssay (NCI)
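Results reflect a 48-hour exposure of cells in 96-well plates to compound at five concentrations. TGI: total growth inhibition.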

Experiments:
Test in all cases: NCI anticancer screen, dose series, 48 h
SW-620 colon = tested on: SW-620 colon
SK-OV-3 ovarian = tested on: SK-OV-3 ovarian
HCT-116 colon = tested on: HCT-116 colon
HOP-62 NSCLC = tested on: HOP-62 NSCLC
NCI-H23 lung = tested on: NCI-H23 lung
M19-MEL melanoma = tested on: M19-MEL melanoma
786-0 renal = tested on: 786-0 renal
SK-MEL-2 melanoma = tested on: SK-MEL-2 melanoma
MALME-3M melanoma = tested on: MALME-3M melanoma
SF-268 CNS = tested on: SF-268 CNS
U251 CNS = tested on: U251 CNS
SNB-19 CNS = tested on: SNB-19 CNS
SK-MEL-5 melanoma = tested on: SK-MEL-5 melanoma
HT29 colon = tested on: HT29 colon
SNB-78 CNS = tested on: SNB-78 CNS
HCC-2998 colon = tested on: HCC-2998 colon
MOLT-4 leukemia = tested on: MOLT-4 leukemia
K-562 leukemia = tested on: K-562 leukemia
DMS 273 small cell lung = tested on: DMS 273 small cell lung
UO-31 renal = tested on: UO-31 renal
KM20L2 colon = tested on: KM20L2 colon
SN12C renal = tested on: SN12C renal
RXF-631 renal = tested on: RXF-631 renal
NCI-H226 lung = tested on: NCI-H226 lung
SR leukemia = tested on: SR leukemia
OVCAR-5 ovarian = tested on: OVCAR-5 ovarian
EKVX NSCLC = tested on: EKVX NSCLC
CAKI-1 renal = tested on: CAKI-1 renal
SNB-75 CNS = tested on: SNB-75 CNS
ACHN renal = tested on: ACHN renal
LXFL 529 NSCLC = tested on: LXFL 529 NSCLC
HCT-15 colon = tested on: HCT-15 colon
A549 NSCLC = tested on: A549 NSCLC
RPMI-8226 leukemia = tested on: RPMI-8226 leukemia
RXF 393 renal = tested on: RXF 393 renal
XF 498 CNS = tested on: XF 498 CNS
HOP-92 NSCLC = tested on: HOP-92 NSCLC
HL-60(TB) leukemia = tested on: HL-60(TB) leukemia
CCRF-CEM leukemia = tested on: CCRF-CEM leukemia
A498 renal = tested on: A498 renal
OVCAR-4 ovarian = tested on: OVCAR-4 ovarian
KM12 colon = tested on: KM12 colon
HOP-18 NSCLC = tested on: HOP-18 NSCLC
UACC-62 melanoma = tested on: UACC-62 melanoma
SK-MEL-28 melanoma = tested on: SK-MEL-28 melanoma
SF-539 CNS = tested on: SF-539 CNS
M14 melanoma = tested on: M14 melanoma
TK-10 renal = tested on: TK-10 renal
DMS 114 small cell lung = tested on: DMS 114 small cell lung
IGROV1 ovarian = tested on: IGROV1 ovarian
SF-295 CNS = tested on: SF-295 CNS
NCI-H460 lung = tested on: NCI-H460 lung
OVCAR-8 ovarian = tested on: OVCAR-8 ovarian
UACC-257 melanoma = tested on: UACC-257 melanoma
COLO 205 colon = tested on: COLO 205 colon
NCI-H522 lung = tested on: NCI-H522 lung
DLD-1 colon = tested on: DLD-1 colon
LOX IMVI melanoma = tested on: LOX IMVI melanoma
OVCAR-3 ovarian = tested on: OVCAR-3 ovarian

Work on `COc1cc(/C=N/c2nncs2)ccc1O` yielded a TGI (SW-620 colon) greater than 100 µM, a TGI (SK-OV-3 ovarian) greater than 100 µM and a TGI (HCT-116 colon) greater than 100 µM. It also gave a TGI (HOP-62 NSCLC) greater than 100 µM, a TGI (NCI-H23 lung) greater than 100 µM and a TGI (M19-MEL melanoma) greater than 100 µM. The TGI (786-0 renal) was greater than 100 µM, the TGI (SK-MEL-2 melanoma) was greater than 100 µM and the TGI (MALME-3M melanoma) was greater than 100 µM. For the same compound, the TGI (SF-268 CNS) was greater than 100 µM, the TGI (U251 CNS) was greater than 100 µM and the TGI (SNB-19 CNS) was greater than 100 µM. For the same compound, the TGI (SK-MEL-5 melanoma) was greater than 100 µM, the TGI (HT29 colon) was greater than 100 µM and the TGI (SNB-78 CNS) was greater than 100 µM. It also gave a TGI (HCC-2998 colon) greater than 100 µM, a TGI (MOLT-4 leukemia) greater than 100 µM and a TGI (K-562 leukemia) greater than 100 µM. The TGI (DMS 273 small cell lung) was greater than 100 µM, the TGI (UO-31 renal) was greater than 100 µM and the TGI (KM20L2 colon) was greater than 100 µM. For the same compound, the TGI (SN12C renal) was greater than 100 µM, the TGI (RXF-631 renal) was greater than 100 µM and the TGI (NCI-H226 lung) was greater than 100 µM. It also gave a TGI (SR leukemia) greater than 100 µM, a TGI (OVCAR-5 ovarian) greater than 100 µM and a TGI (EKVX NSCLC) greater than 100 µM. It also gave a TGI (CAKI-1 renal) greater than 100 µM, a TGI (SNB-75 CNS) greater than 100 µM and a TGI (ACHN renal) greater than 100 µM. For the same compound, the TGI (LXFL 529 NSCLC) was greater than 100 µM, the TGI (HCT-15 colon) was greater than 100 µM and the TGI (A549 NSCLC) was greater than 100 µM. It also gave a TGI (RPMI-8226 leukemia) greater than 100 µM, a TGI (RXF 393 renal) greater than 100 µM and a TGI (XF 498 CNS) greater than 100 µM. For the same compound, the TGI (HOP-92 NSCLC) was greater than 100 µM, the TGI (HL-60(TB) leukemia) was greater than 100 µM and the TGI (CCRF-CEM leukemia) was greater than 100 µM. The TGI (A498 renal) was greater than 100 µM, the TGI (OVCAR-4 ovarian) was greater than 100 µM and the TGI (KM12 colon) was greater than 100 µM. For the same compound, the TGI (HOP-18 NSCLC) was greater than 100 µM, the TGI (UACC-62 melanoma) was greater than 100 µM and the TGI (SK-MEL-28 melanoma) was greater than 100 µM. The TGI (SF-539 CNS) was greater than 100 µM, the TGI (M14 melanoma) was greater than 100 µM and the TGI (TK-10 renal) was greater than 100 µM. For the same compound, the TGI (DMS 114 small cell lung) was greater than 100 µM, the TGI (IGROV1 ovarian) was greater than 100 µM and the TGI (SF-295 CNS) was greater than 100 µM. It also gave a TGI (NCI-H460 lung) greater than 100 µM, a TGI (OVCAR-8 ovarian) greater than 100 µM and a TGI (UACC-257 melanoma) greater than 100 µM.

With `COc1cccc(C2C(C(=O)O)=C(CO)Oc3cc4c(cc32)OCO4)c1OC` (stereo not drawn) the TGI (SW-620 colon) was greater than 100 µM, the TGI (SK-OV-3 ovarian) was greater than 100 µM and the TGI (NCI-H23 lung) was greater than 100 µM. It also gave a TGI (COLO 205 colon) greater than 100 µM, a TGI (M19-MEL melanoma) greater than 100 µM and a TGI (SK-MEL-2 melanoma) greater than 100 µM. It also gave a TGI (MALME-3M melanoma) greater than 100 µM, a TGI (SF-268 CNS) greater than 100 µM and a TGI (U251 CNS) greater than 100 µM. It also gave a TGI (SNB-19 CNS) greater than 100 µM, a TGI (SK-MEL-5 melanoma) greater than 100 µM and a TGI (SNB-78 CNS) greater than 100 µM. It also gave a TGI (NCI-H522 lung) greater than 100 µM, a TGI (MOLT-4 leukemia) greater than 100 µM and a TGI (K-562 leukemia) greater than 100 µM. It also gave a TGI (UO-31 renal) greater than 100 µM, a TGI (DLD-1 colon) greater than 100 µM and a TGI (KM20L2 colon) greater than 100 µM. For the same compound, the TGI (SN12C renal) was greater than 100 µM, the TGI (RXF-631 renal) was greater than 100 µM and the TGI (NCI-H226 lung) was greater than 100 µM. It also gave a TGI (EKVX NSCLC) greater than 100 µM, a TGI (CAKI-1 renal) greater than 100 µM and a TGI (SNB-75 CNS) greater than 100 µM. It also gave a TGI (ACHN renal) greater than 100 µM, a TGI (LXFL 529 NSCLC) greater than 100 µM and a TGI (HCT-15 colon) greater than 100 µM. It also gave a TGI (RPMI-8226 leukemia) greater than 100 µM, a TGI (LOX IMVI melanoma) greater than 100 µM and a TGI (XF 498 CNS) of 94.7 µM. It also gave a TGI (OVCAR-3 ovarian) greater than 100 µM, a TGI (HOP-92 NSCLC) greater than 100 µM and a TGI (HL-60(TB) leukemia) greater than 100 µM. It also gave a TGI (CCRF-CEM leukemia) greater than 100 µM, a TGI (A498 renal) greater than 100 µM and a TGI (HOP-18 NSCLC) greater than 100 µM. It also gave a TGI (UACC-62 melanoma) greater than 100 µM, a TGI (SK-MEL-28 melanoma) greater than 100 µM and a TGI (SF-539 CNS) greater than 100 µM. It also gave a TGI (M14 melanoma) greater than 100 µM, a TGI (TK-10 renal) greater than 100 µM and a TGI (IGROV1 ovarian) greater than 100 µM. The TGI (SF-295 CNS) was greater than 100 µM, the TGI (NCI-H460 lung) was greater than 100 µM and the TGI (OVCAR-8 ovarian) was greater than 100 µM.

`COc1ccc(/C(=N\N=C(N)N)C(c2ccc(OC)cc2)C2OC(=O)c3ccccc32)cc1` (stereo not drawn) gave a TGI (SW-620 colon) greater than 100 µM, a TGI (SK-OV-3 ovarian) greater than 100 µM and a TGI (HCT-116 colon) greater than 100 µM. The TGI (HOP-62 NSCLC) was greater than 100 µM, the TGI (NCI-H23 lung) was greater than 100 µM and the TGI (COLO 205 colon) was greater than 100 µM. For the same compound, the TGI (M19-MEL melanoma) was greater than 100 µM, the TGI (786-0 renal) was greater than 100 µM and the TGI (MALME-3M melanoma) was greater than 100 µM. For the same compound, the TGI (SF-268 CNS) was greater than 100 µM, the TGI (U251 CNS) was greater than 100 µM and the TGI (SNB-19 CNS) was greater than 100 µM. It also gave a TGI (SK-MEL-5 melanoma) greater than 100 µM, a TGI (HT29 colon) greater than 100 µM and a TGI (SNB-78 CNS) greater than 100 µM. The TGI (HCC-2998 colon) was greater than 100 µM, the TGI (NCI-H522 lung) was greater than 100 µM and the TGI (MOLT-4 leukemia) was greater than 100 µM. For the same compound, the TGI (K-562 leukemia) was greater than 100 µM, the TGI (DMS 273 small cell lung) was greater than 100 µM and the TGI (UO-31 renal) was greater than 100 µM. The TGI (DLD-1 colon) was greater than 100 µM, the TGI (KM20L2 colon) was greater than 100 µM and the TGI (SN12C renal) was greater than 100 µM. It also gave a TGI (RXF-631 renal) greater than 100 µM, a TGI (NCI-H226 lung) greater than 100 µM and a TGI (SR leukemia) greater than 100 µM. It also gave a TGI (OVCAR-5 ovarian) greater than 100 µM, a TGI (CAKI-1 renal) greater than 100 µM and a TGI (SNB-75 CNS) greater than 100 µM. It also gave a TGI (ACHN renal) greater than 100 µM, a TGI (LXFL 529 NSCLC) greater than 100 µM and a TGI (HCT-15 colon) greater than 100 µM. For the same compound, the TGI (A549 NSCLC) was greater than 100 µM, the TGI (RPMI-8226 leukemia) was greater than 100 µM and the TGI (RXF 393 renal) was greater than 100 µM. For the same compound, the TGI (LOX IMVI melanoma) was greater than 100 µM, the TGI (XF 498 CNS) was greater than 100 µM and the TGI (OVCAR-3 ovarian) was greater than 100 µM. The TGI (HOP-92 NSCLC) was greater than 100 µM, the TGI (HL-60(TB) leukemia) was greater than 100 µM and the TGI (CCRF-CEM leukemia) was greater than 100 µM. It also gave a TGI (OVCAR-4 ovarian) greater than 100 µM, a TGI (KM12 colon) greater than 100 µM and a TGI (UACC-62 melanoma) greater than 100 µM. The TGI (SK-MEL-28 melanoma) was greater than 100 µM, the TGI (SF-539 CNS) was greater than 100 µM and the TGI (M14 melanoma) was greater than 100 µM. For the same compound, the TGI (DMS 114 small cell lung) was greater than 100 µM, the TGI (IGROV1 ovarian) was greater than 100 µM and the TGI (SF-295 CNS) was greater than 100 µM. It also gave a TGI (NCI-H460 lung) greater than 100 µM, a TGI (OVCAR-8 ovarian) greater than 100 µM and a TGI (UACC-257 melanoma) greater than 100 µM.
